Test results taken from US20250312499A1, “KISSPEPTIN RECEPTOR (KISS1R) TARGETED THERAPEUTICS AND USES THEREOF” (priority 2024, published 2025).
Numbered stars: 1 amine (or outer) side, 2 acyl side, 3 side chain; on linkers, the order of the positions; unused ones are H or OH. Square brackets hold non-standard residues; d marks the D form. Peptide text beside a SMILES is read from it. * marks the point of attachment. DOTA = O=C(O)CN1CCN(CC(=O)O)CCN(CC(=O)*)CCN(CC(=O)O)CC1; Ala(9-anthryl) = N[C@@H](Cc1c2ccccc2cc2ccccc12)C(=O)O; Gly(N-(3-F-4-Me-benzyl)) = Cc1ccc(CNCC(=O)*)cc1F; Butanoyl(4-(4-I-phenyl)) = O=C(CCCc1ccc(I)cc1)*; Gly(N-3-F-4-Me-benzyl) = Cc1ccc(CNCC(=O)O)cc1F; Bpa = N[C@@H](Cc1ccc(C(=O)c2ccccc2)cc1)C(=O)O; Butanoyl(4-(4-MePh)) = Cc1ccc(CCCC(=O)*)cc1; Api(1-amidino) = N=C(N)N1CCC(N)(C(=O)O)CC1; Hydrocinnamoyl(4-Me) = Cc1ccc(CCC(=O)*)cc1; Phe(4-CN) = N#Cc1ccc(C[C@H](N)C(=O)O)cc1; 2Nal = N[C@@H](Cc1ccc2ccccc2c1)C(=O)O; d2Nal = N[C@H](Cc1ccc2ccccc2c1)C(=O)O; X1 = O=C(CN1CCC(N[*:1])CC1)[*:2]; dCya = N[C@H](CS(=O)(=O)O)C(=O)O; d4Pal = N[C@H](Cc1ccncc1)C(=O)O; Cha = N[C@@H](CC1CCCCC1)C(=O)O; Lauroyl = CCCCCCCCCCCC(=O)*; 4Amb = NCc1ccc(C(=O)O)cc1; Api = NC1(C(=O)O)CCNCC1; PEG2 = NCCOCCOCCC(=O)O; Ahx = NCCCCCC(=O)O; azaGly = NNC(=O)O; βAla = NCCC(=O)O; Sar = CNCC(=O)O

These compounds were tested against human kisspeptin receptor (Homo sapiens (Human), UniProt Q969F8) (assay: Human KISS1R binding assay (membrane competition binding)). Conditions: 90 min at room temperature; competition with 0.2 nM [125I]-metastin (45-54); Flp-In T-Rex 293 kisspeptin membranes; metal complexes nonradioactive Ga, In, Lu; read-out: hKiSSR Binding Ki (90 min).
Sequence of human kisspeptin receptor (Q969F8 whole entry): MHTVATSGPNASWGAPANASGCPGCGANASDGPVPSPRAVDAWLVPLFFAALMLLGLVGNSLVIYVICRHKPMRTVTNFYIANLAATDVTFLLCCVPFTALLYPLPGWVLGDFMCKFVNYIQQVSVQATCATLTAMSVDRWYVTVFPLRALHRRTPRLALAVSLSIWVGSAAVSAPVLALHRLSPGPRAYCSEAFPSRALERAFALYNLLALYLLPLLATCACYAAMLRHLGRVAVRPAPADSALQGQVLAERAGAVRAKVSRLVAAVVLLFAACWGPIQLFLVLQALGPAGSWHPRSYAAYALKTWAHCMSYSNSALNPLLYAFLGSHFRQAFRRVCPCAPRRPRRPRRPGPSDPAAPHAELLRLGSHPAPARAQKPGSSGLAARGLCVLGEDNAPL
How it was run: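 Radioligand competition: 0.2 nM [125I]-metastin (45-54) displaced by test ligand (usually 0–10,000 nM) over 90 min at room temperature, pH 7.4 buffer with 0.1% BSA. Receptor source is crude membrane (5–10 μg) from tetracycline-induced Flp-In T-Rex 293 cells. Bound label filtered and counted; Ki from non-linear regression.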
With `Cc1ccc(CNCC(=O)N2CCC(NC(=O)[C@H](CC(C)C)NC(=O)NNC(=O)[C@H](Cc3ccccc3)NC(=O)[C@@H](NC(=O)[C@H](CC(N)=O)NC(=O)[C@@H](Cc3ccncc3)NC(=O)[C@@H](Cc3ccc(O)cc3)NC(=O)CN3CCC(NC(=O)CN4CCN(CC(=O)O)CCN(CC(=O)O)CCN(CC(=O)O)CC4)CC3)[C@@H](C)O)(C(=O)N[C@@H](Cc3c[nH]c4ccccc34)C(N)=O)CC2)cc1F` [Compound 29] ({DOTA}-[X1][dY][d4Pal]NTF[azaGly]L[Api](Gly(N-(3-F-4-Me-benzyl)))W-NH2) the Ki was < 10 nM.
For `CNCC(=O)N1CCC(NC(=O)[C@H](CC(C)C)NC(=O)NNC(=O)[C@H](Cc2ccccc2)NC(=O)[C@@H](NC(=O)[C@H](CC(N)=O)NC(=O)[C@H](Cc2ccc(C(=O)c3ccccc3)cc2)NC(=O)[C@@H](Cc2ccc(O)cc2)NC(=O)CCCCCNC(=O)CN2CCN(CC(=O)O)CCN(CC(=O)O)CCN(CC(=O)O)CC2)[C@@H](C)O)(C(=O)N[C@H](Cc2c[nH]c3ccccc23)C(N)=O)CC1` [Compound 345] ({DOTA-Ahx}-[dY][Bpa]NTF[azaGly]L[Api](Sar)[dW]-NH2), the Ki was < 10 nM.
`Cc1ccc(CCC(=O)NCCOCCOCCC(=O)N[C@H](Cc2ccc(O)cc2)C(=O)N[C@@H](CCCCNC(=O)CN2CCN(CC(=O)O)CCN(CC(=O)O)CCN(CC(=O)O)CC2)C(=O)N[C@@H](CC(N)=O)C(=O)N[C@H](C(=O)N[C@@H](Cc2ccccc2)C(=O)NNC(=O)N[C@@H](CC(C)C)C(=O)NC2(C(=O)N[C@@H](Cc3ccc(C#N)cc3)C(N)=O)CCN(C(=N)N)CC2)[C@@H](C)O)cc1` [Compound 333] ({Hydrocinnamoyl(4-Me)-PEG2}-[dY]K(DOTA)NTF[azaGly]L[Api(1-amidino)][Phe(4-CN)]-NH2) was tested, and the Ki was < 10 nM.
In the case of `Cc1ccc(CCCC(=O)NCCCC[C@@H](NC(=O)CCCCCNC(=O)CN2CCN(CC(=O)O)CCN(CC(=O)O)CCN(CC(=O)O)CC2)C(=O)N[C@H](Cc2ccc(O)cc2)C(=O)N[C@H](Cc2ccc3ccccc3c2)C(=O)N[C@@H](CC(N)=O)C(=O)N[C@H](C(=O)N[C@@H](Cc2ccccc2)C(=O)NNC(=O)N[C@@H](CC(C)C)C(=O)NC2(C(=O)N[C@@H](Cc3ccccc3)C(N)=O)CCN(C(=N)N)CC2)[C@@H](C)O)cc1` [Compound 309] ({DOTA-Ahx}-[dK](Butanoyl(4-(4-MePh)))[dY][d2Nal]NTF[azaGly]L[Api(1-amidino)]F-NH2), the Ki is reported as < 10 nM.
`CSCC[C@H](NC(=O)c1ccc(CNC(=O)CN2CCN(CC(=O)O)CCN(CC(=O)O)CCN(CC(=O)O)CC2)cc1)C(=O)N[C@@H](Cc1c[nH]c2ccccc12)C(=O)N[C@@H](CCCCNC(=O)CCCCC(=O)N[C@@H](CC(N)=O)C(=O)N[C@H](C(=O)N[C@@H](Cc1ccccc1)C(=O)NNC(=O)N[C@@H](CC(C)C)C(=O)NC1(C(=O)N[C@@H](Cc2c[nH]c3ccccc23)C(N)=O)CCN(C(=O)CNCc2ccc(C)c(F)c2)CC1)[C@@H](C)O)C(=O)O` [Compound 168] was tested, and the Ki was < 10 nM.
Work on `Cc1ccc(CNCC(=O)N2CCC(NC(=O)[C@H](CC(C)C)SC(C)(C)CNC(=O)[C@H](Cc3ccccc3)NC(=O)CCCCCNC(=O)CN3CCN(CC(=O)O)CCN(CC(=O)O)CCN(CC(=O)O)CC3)(C(=O)N[C@@H](Cc3c[nH]c4ccccc34)C(N)=O)CC2)cc1F` [Compound 138] yielded a Ki of 10 to 100 nM.
For `Cc1ccc(CNCC(=O)N2CCC(NC(=O)[C@H](CC(C)C)NC(=O)NNC(=O)[C@H](Cc3ccccc3)NC(=O)CCCCCNC(=O)CN3CCN(CC(=O)O)CCN(CC(=O)O)CCN(CC(=O)O)CC3)(C(=O)N[C@@H](Cc3ccccc3)C(N)=O)CC2)cc1F` [Compound 55] ({DOTA-Ahx}-F[azaGly]L[Api](Gly(N-(3-F-4-Me-benzyl)))F-NH2), the Ki was < 10 nM.
In the case of `Cc1ccc(CNCC(=O)N2CCC(NC(=O)c3ccc(-c4ccccc4)c(OCCNNC(=O)[C@H](Cc4ccccc4)NC(=O)CCCCCNC(=O)CN4CCN(CC(=O)O)CCN(CC(=O)O)CCN(CC(=O)O)CC4)c3)(C(=O)N[C@@H](Cc3c[nH]c4ccccc34)C(N)=O)CC2)cc1F` [Compound 280], the Ki is reported as > 100 nM.
In the case of `CC(C)C[C@H](NC(=O)NNC(=O)[C@H](Cc1ccccc1)NC(=O)[C@@H](NC(=O)[C@H](CC(N)=O)NC(=O)[C@@H](Cc1c[nH]c2ccccc12)NC(=O)[C@@H](Cc1ccc(O)cc1)NC(=O)c1ccc(CNC(=O)CCCCCNC(=O)CN2CCN(CC(=O)O)CCN(CC(=O)O)CCN(CC(=O)O)CC2)cc1)[C@@H](C)O)C(=O)NC1(C(=O)N[C@@H](Cc2c[nH]c3ccccc23)C(N)=O)CCN(C(=N)N)CC1` [Compound 270] ({DOTA-Ahx-4Amb}-[dY][dW]NTF[azaGly]L[Api(1-amidino)]W-NH2), the Ki is reported as < 10 nM.
In the case of `CNCC(=O)N1CCC(NC(=O)[C@H](CC(C)C)NC(=O)NNC(=O)[C@H](Cc2ccccc2)NC(=O)[C@@H](NC(=O)[C@H](CC(N)=O)NC(=O)[C@H](CCCCNC(=O)CN2CCN(CC(=O)O)CCN(CC(=O)O)CCN(CC(=O)O)CC2)NC(=O)[C@@H](Cc2ccc(O)cc2)NC(=O)CNCc2ccc(C)c(F)c2)[C@@H](C)O)(C(=O)N[C@@H](Cc2c[nH]c3ccccc23)C(N)=O)CC1` [Compound 386] (H-[Gly(N-3-F-4-Me-benzyl)][dY]K(DOTA)NTF[azaGly]L[Api](Sar)W-NH2), the Ki is reported as < 10 nM.
`CC(C)C[C@H](NC(=O)NNC(=O)[C@H](CC1CCCCC1)NC(=O)[C@@H](NC(=O)[C@H](CC(N)=O)NC(=O)[C@@H](Cc1ccc2ccccc2c1)NC(=O)[C@@H](Cc1ccc(O)cc1)NC(=O)CCCCCNC(=O)CN1CCN(CC(=O)O)CCN(CC(=O)O)CCN(CC(=O)O)CC1)[C@@H](C)O)C(=O)NC1(C(=O)N[C@@H](Cc2c[nH]c3ccccc23)C(N)=O)CCN(C(=N)N)CC1` [Compound 317] ({DOTA-Ahx}-[dY][d2Nal]NT[Cha][azaGly]L[Api(1-amidino)]W-NH2) was tested, and the Ki was < 10 nM.
In the case of `Cc1ccc(CNCC(=O)N2CCC(NC(=O)[C@H](CC(C)C)NC(=O)NNC(=O)[C@H](Cc3ccccc3)NC(=O)[C@@H](CC(N)=O)NC(=O)[C@@H](CCC(=O)O)NC(=O)[C@@H](CCCCN)NC(=O)[C@@H](CC(N)=O)NC(=O)[C@@H](CC(N)=O)NC(=O)CCNC(=O)CN3CCN(CC(=O)O)CCN(CC(=O)O)CCN(CC(=O)O)CC3)(C(=O)N[C@@H](Cc3c[nH]c4ccccc34)C(N)=O)CC2)cc1F` [Compound 16] ({DOTA-βAla}-[dN][dN][dK][dE][dN]F[azaGly]L[Api](Gly(N-(3-F-4-Me-benzyl)))W-NH2), the Ki is reported as > 100 nM.
With `CC(C)C[C@H](NC(=O)NNC(=O)[C@H](Cc1ccccc1)NC(=O)[C@@H](NC(=O)[C@H](CC(N)=O)NC(=O)[C@H](Cc1c2ccccc2cc2ccccc12)NC(=O)[C@@H](Cc1ccc(O)cc1)NC(=O)CCCCCNC(=O)CN1CCN(CC(=O)O)CCN(CC(=O)O)CCN(CC(=O)O)CC1)[C@@H](C)O)C(=O)NC1(C(=O)N[C@@H](Cc2c[nH]c3ccccc23)C(N)=O)CCN(C(=N)N)CC1` [Compound 184] ({DOTA-Ahx}-[dY][Ala(9-anthryl)]NTF[azaGly]L[Api(1-amidino)]W-NH2) the Ki was < 10 nM.
In the case of `CNCC(=O)N1CCC(NC(=O)[C@H](CC(C)C)NC(=O)NNC(=O)[C@H](Cc2ccccc2)NC(=O)[C@@H](NC(=O)[C@H](CC(N)=O)NC(=O)[C@@H](Cc2ccc3ccccc3c2)NC(=O)[C@H](N)Cc2ccc(O)cc2)[C@@H](C)O)(C(=O)N[C@@H](Cc2ccc(O)cc2)C(N)=O)CC1` [Compound 407] (H-[dY][d2Nal]NTF[azaGly]L[Api](Sar)Y-NH2), the Ki is reported as < 10 nM.
For `CNCC(=O)N1CCC(NC(=O)[C@H](CC(C)C)NC(=O)NNC(=O)[C@H](Cc2ccccc2)NC(=O)[C@@H](NC(=O)[C@H](CC(N)=O)NC(=O)[C@@H](Cc2ccc3ccccc3c2)NC(=O)[C@@H](Cc2ccc(O)cc2)NC(=O)CCCc2ccc(I)cc2)[C@@H](C)O)(C(=O)N[C@@H](Cc2c[nH]c3ccccc23)C(N)=O)CC1` [Compound 395] ({Butanoyl(4-(4-I-phenyl))}-[dY][d2Nal]NTF[azaGly]L[Api](Sar)W-NH2), the Ki was < 10 nM.
With `CCCCCCCCCCCC(=O)N[C@H](Cc1ccc(O)cc1)C(=O)N[C@H](Cc1ccc2ccccc2c1)C(=O)N[C@@H](CC(N)=O)C(=O)N[C@H](C(=O)N[C@@H](Cc1ccccc1)C(=O)NNC(=O)N[C@@H](CC(C)C)C(=O)NC1(C(=O)N[C@@H](Cc2ccc(O)cc2)C(N)=O)CCN(C(=O)CNC)CC1)[C@@H](C)O` [Compound 401] (Lauroyl-[dY][d2Nal]NTF[azaGly]L[Api](Sar)Y-NH2) the Ki was < 10 nM.
With `Cc1ccc(CNCC(=O)N2CCC(NC(=O)[C@H](CC(C)C)NC(=O)NNC(=O)[C@H](Cc3ccccc3)NC(=O)[C@@H](NC(=O)[C@H](CC(N)=O)NC(=O)[C@@H]3CCCN3C(=O)[C@@H](Cc3ccc(O)cc3)NC(=O)CCCCCNC(=O)CN3CCN(CC(=O)O)CCN(CC(=O)O)CCN(CC(=O)O)CC3)[C@@H](C)O)(C(=O)N[C@@H](Cc3c[nH]c4ccccc34)C(N)=O)CC2)cc1F` [Compound 20] ({DOTA-Ahx}-[dY]PNTF[azaGly]L[Api](Gly(N-(3-F-4-Me-benzyl)))W-NH2) the Ki was < 10 nM.
In the case of `Cc1ccc(CNCC(=O)N2CCC(NC(=O)[C@H](CC(C)C)NC(=O)NNC(=O)[C@H](Cc3ccccc3)NC(=O)[C@@H](NC(=O)[C@H](CC(N)=O)NC(=O)[C@@H](Cc3c[nH]c4ccccc34)NC(=O)[C@@H](Cc3ccc(O)cc3)NC(=O)CCCCCNC(=O)[C@@H](CS(=O)(=O)O)NC(=O)[C@@H](CS(=O)(=O)O)NC(=O)[C@@H](CS(=O)(=O)O)NC(=O)CN3CCN(CC(=O)O)CCN(CC(=O)O)CCN(CC(=O)O)CC3)[C@@H](C)O)(C(=O)N[C@@H](Cc3c[nH]c4ccccc34)C(N)=O)CC2)cc1F` [Compound 114] ({DOTA}-[dCya][dCya][dCya][Ahx][dY][dW]NTF[azaGly]L[Api](Gly(N-(3-F-4-Me-benzyl)))W-NH2), the Ki is reported as < 10 nM.
In the case of `Cc1ccc(CNCC(=O)N2CCC(NC(=O)[C@H](CC(C)C)NC(=O)NNC(=O)[C@H](Cc3ccccc3)NC(=O)CCCCCNC(=O)[C@H](Cc3ccc4ccccc4c3)NC(=O)[C@H](Cc3ccc(O)cc3)NC(=O)CNC(=O)CN3CCN(CC(=O)O)CCN(CC(=O)O)CCN(CC(=O)O)CC3)(C(=O)N[C@@H](Cc3c[nH]c4ccccc34)C(N)=O)CC2)cc1F` [Compound 307] ({DOTA}-GY[2Nal][Ahx]F[azaGly]L[Api](Gly(N-(3-F-4-Me-benzyl)))W-NH2), the Ki is reported as < 10 nM.
